Measured values from article PMC8472287, “Betulinic Acid Decorated with Polar Groups and Blue Emitting BODIPY Dye: Synthesis, Cytotoxicity, Cell-Cycle Analysis and Anti-HIV Profiling” (Biomedicines, 2021).

Columns and labels:
CCRF-CEM = experiment: MTS cytotoxicity assay, CCRF-CEM; format: cell-based; details: Homo sapiens, 72 h, 3-day incubation
From the text: (§1) All cells (if not indicated otherwise) were purchased from the American Tissue Culture Collection (ATCC; Manassas, VA, USA). The highly chemosensitive CCRF-CEM line is derived from T lymphoblastic leukaemia, K562 represent cells of chronic myelogenous leukaemia. Colorectal adenocarcinoma HCT116 cell line and its p53 gene knockout counterpart (HCT116p53−/−, Horizon Discovery Ltd., Cambridge, UK) were used as models to assess the impact of p53 deficiency on cell line sensitivity. A549 cells are derived from lung adenocarcinoma and U2OS from human osteosarcoma. CEM-DNR and K562-Tax are well-characterized daunorubicin and paclitaxel-resistant sublines of CCRF-CEM and K562. The CEM-DNR resistant cells overexpress the P-glycoprotein and LRP protein, the K562-Tax overexpress P-glycoprotein but is losing the expression of LRP, which is present at parental K562 cell line. P-glycoprotein belongs to the ABC transporters’ family and is involved in the primary and acquired multidrug resistance phenomenon by the efflux of toxic compounds, LRP protein is involved in the lysosomal degradation. MRC-5 and BJ cell lines were used as a non-tumour control and represent human fibroblasts. The cells were maintained in Nunc/Corning 80 cm^2 plastic tissue culture flasks and cultured in cell culture medium according to ATCC or Horizon recommendations (DMEM/RPMI 1640 with 5 g/L-glucose, 2 mM glutamine, 100 U/mL penicillin, […] streptomycin, 10% fetal calf serum, and NaHCO3).
(§2) To perform the cytotoxicity MTS assay, cell suspensions were prepared and diluted according to the cell type and the expected target cell density (25,000–35,000 cells/mL) based on cell growth characteristics. Cells were added by an automatic pipettor (30 μL) into 384 well microtiter plates. All tested compounds were dissolved in 100% DMSO and four-fold dilutions of the intended test concentration were added in 0.15 μL aliquots at time zero to the microtiter plate wells by the echo-acoustic liquid handler Echo550 (Labcyte, San Jose, CA, USA). The experiments were performed in technical duplicates and at least three biological replicates. The cells were incubated with the tested compounds for 72 h at 37 °C, in a 5% CO2 atmosphere at 99% humidity. At the end of the incubation period, the cells were assayed by using the MTS test. Aliquots (5 µL) of the MTS stock solution were pipetted into each well and incubated for an additional 1–4 h. After this incubation period, the optical density (OD) was measured at 490 nm with an Envision microplate reader (Perkin Elmer, Waltham, Massachusetts, USA). Tumour cell survival (TCS) was calculated using the following equation: TCS = (ODdrug-exposed well/mean ODcontrol wells) × 100%.

CEM-DNR = experiment: MTS cytotoxicity assay, CEM-DNR; format: cell-based; details: Homo sapiens, 72 h, CEM-DNR (daunorubicin resistant), 3-day incubation
From the text: as §1, §2

K562 = experiment: MTS cytotoxicity assay, K562; format: cell-based; details: Homo sapiens, 72 h, 3-day incubation
From the text: as §1, §2

K562-Tax = experiment: MTS cytotoxicity assay, K562-Tax; format: cell-based; details: Homo sapiens, 72 h, K562-Tax (paclitaxel-resistant), 3-day incubation
From the text: as §1, §2

A549 = experiment: MTS cytotoxicity assay, A549; format: cell-based; details: Homo sapiens, 72 h, 3-day incubation
From the text: as §1, §2

HCT116 = experiment: MTS cytotoxicity assay, HCT116; format: cell-based; details: Homo sapiens, HCT-116, 72 h, 3-day incubation
From the text: as §1, §2

HCT116p53−/− = experiment: MTS cytotoxicity assay, HCT116p53−/−; format: cell-based; details: Homo sapiens, HCT116-p53-null, 72 h, HCT116p53−/− (null p53 gene), 3-day incubation
From the text: as §1, §2

U2OS = experiment: MTS cytotoxicity assay, U2OS; format: cell-based; details: Homo sapiens, 72 h, 3-day incubation
From the text: as §1, §2

MRC-5 = experiment: MTS cytotoxicity assay, MRC-5; format: cell-based; details: Homo sapiens, MRC5, 72 h, MRC-5 normal fibroblasts, 3-day incubation
From the text: as §1, §2

BJ = experiment: MTS cytotoxicity assay, BJ; format: cell-based; details: Homo sapiens, 72 h, BJ normal fibroblasts, 3-day incubation
From the text: as §1, §2

CCRF-CEM lymphoblasts [1] = experiment: Cell cycle and apoptosis analysis (flow cytometry, propidium iodide); format: cell-based, human; details: 5 × IC50
Procedure: (§3) CCRF-CEM cells were seeded in 6-well plates at a density of 1 × 10^6/well. […] Cells were then harvested, washed with cold 1 × PBS and fixed in ice-cold 70% ethanol. Fixed cells were incubated overnight at −20 °C, washed in hypotonic citrate buffer, treated with RNase (50 μg mL^−1) and incubated with propidium iodide for 15 min. DNA content was analysed using Becton Dickinson flow cytometer and cell cycle data were analysed in the program ModFitLT (Verity, Carrollton, TX, USA). Apoptosis was measured in a logarithmic model expressing the percentage of the particles with propidium content lower than cells in G0/G1 phase (<G1) of the cell cycle. The mitotic marker pH3Ser10 antibody (Sigma) and secondary anti-mouse-FITC antibody (Sigma) were used for labelling and subsequent flow cytometry analysis of ethanol-fixed CCRF-CEM cells.

CCRF-CEM lymphoblasts [2] = experiment: Mitotic marker pH3Ser10 flow cytometry; format: cell-based, human; details: 5 × IC50
Procedure: as §3

CCRF-CEM lymphoblasts [3] = experiment: BrDU incorporation analysis (DNA synthesis); format: cell-based, human; details: 24 h incubation
Procedure: Cells were cultivated as in the method above and pulse-labelled with 10 μM 5-bromo-2-deoxyuridine (BrDU) for 30 min before collection to the test tubes. The cells were washed with cold 1 × PBS and fixed in ice-cold 70% ethanol. Before analysis, they were washed with 1 × PBS and incubated in 2M HCl for 30 min at room temperature. Following neutralization with 0.1M Na2B4O7 (borax), the cells were washed with 0.5% Tween-20 and 1% BSA in 1 × PBS. The cell pellets were stained using a primary anti-BrdU antibody (Exbio, Vestec, Czech Republic) for 30 min at room temperature and a secondary anti-mouse-FITC antibody (Sigma). The samples were then incubated with propidium iodide (0.1 mg mL^−1), treated with RNase A (0.5 mg mL^−1) for 1 h at room temperature in the dark and analysed as above.

CCRF-CEM lymphoblasts [4] = experiment: BrU incorporation analysis (RNA synthesis); format: cell-based, human; details: 24 h, 5 × IC50 (high concentration)
[5] = system: VSV-G pseudotyped HIV-1 particles; experiment: microbe, parasite or virus in culture; format: cell-based; details: Human immunodeficiency virus 1, HEK293, 48 h, read-out: IC50i (50% infection inhibition)
[6] = system: CA-SP1 processing of HIV-1 Gag polyprotein; experiment: Western blot of released virions with anti-HIV-1 CA antibody; format: cell-based
in vitro = details: human
U2OS-Nuc cell line = experiment: Live cell imaging, pilot experiment; format: cell-based, human; details: 10 µM, 1 h incubation
Procedure: (§4) U2OS cell line (ATCC, USA) was transduced with premade lentiviral particles (Vectalis-TaKaRa, Japan) with sequences that express fluorescent protein tag mCherry targeted to specific subcellular locations. All cell lines were prepared according to the vendor’s instructions. The U2OS-Nuc cell line was prepared by using rLV.EF1.mCherry-Nuc-9 (cat. n. 0023VCT), containing a NLS sequence that imports protein into the nucleus. The U2OS-ER cell line was transduced by rLV.EF1.mCherry-ER-9 (cat. n. 0025VCT), which contains a calreticulin signal sequence and a KDEL sequence that associates protein with the endoplasmic reticulum. The U2OS-GA cell line was transduced by rLV.EF1.mCherry-Golgi-9 (cat. n. 0022VCT), containing a human GT precursor, a protein localized in Golgi Apparatus. The U2OS-Mito cell line was prepared by using rLV.EF1.mCherry-Mito-9 (cat. n. 0024VCT), containing a mitochondrial targeting sequence.
(§5) U2OS cells with fluorescent fusion proteins (density 1.0 × 10^3 per well) were seeded into 384 CellCarrier plates (Perkin Elmer, Waltham, MA, USA) and pre-incubated for 24 h at 37 °C and 5% CO2. The attached cells were treated with tested compounds in concentration 10 µM for 1 h and subsequently rinsed with fresh media. The live-cell imaging was performed by Cell Voyager CV7000 (Yokogawa, Tokyo, Japan) spinning disc confocal microscopy system at 37 °C in a 5% CO2 atmosphere. Live cells were monitored by a 60 × water immersion objective. The fluorescent signal was excited by lasers (405 nm and 561 nm) and the emission was filtered by bandpass filters (BP 445/45 and BP 595/20). All images were post-processed, and Pearson’s and Mander’s coefficients were calculated using the JACoP plugin in Image-J software.

[7] = system: U2OS-ER, U2OS-Mito and U2OS-GA cell lines; experiment: Live cell colocalization experiments; format: cell-based, human; details: 10 µM, 1 h, Mander's coefficient
Procedure: as §4, §5

| Compound | IC50 (CCRF-CEM) | IC50 (CEM-DNR) | IC50 (K562) | IC50 (K562-Tax) | IC50 (A549) | IC50 (HCT116) | IC50 (HCT116p53−/−) | IC50 (U2OS) | IC50 (MRC-5) | IC50 (BJ) | increase of the percentage of cells in the S-phase compared to untreated control (CCRF-CEM lymphoblasts [1]) | rate of cell division by mitotic marker pH3Ser10 (in words) (CCRF-CEM lymphoblasts [2]) | fraction of proliferating BrDU positive CCRF-CEM cells (in words) (CCRF-CEM lymphoblasts [3]) | RNA synthesis by BrU (in words) (CCRF-CEM lymphoblasts [4]) | IC50 [5] | CA forms identified in released viruses (CA-SP1 processing) [6] | cytotoxic effect in the cell line panel (in words) (entire cell line panel) | IC50 (in vitro) | detection in living cells (U2OS-Nuc cell line) | colocalization with cellular structures [7] |
| --- | --- | --- | --- | --- | --- | --- | --- | --- | --- | --- | --- | --- | --- | --- | --- | --- | --- | --- | --- | --- |
| C=C(C)[C@@H]1CC[C@]2(C(=O)NCCCN=[N+]=[N-])CC[C@]3(C)[C@H](CC[C@@H]4[C@@]5(C)CC[C@H](OC(=O)CC(C)(C)C(=O)O)C(C)(C)[C@@H]5CC[C@]43C)[C@@H]12 [Compound 2, 4-{[(3β)-28-[(3-Azidopropyl)amino]-28-oxolup-20(29)-ene-3-yl]oxy}-2,2-dimethyl-4-oxo-butanoic acid] | 8.14 µM | 10.2 µM | 26 µM | 15.9 µM | 22.9 µM | 19.4 µM | 29.2 µM | 22.2 µM | 24.2 µM | 25.3 µM | about 50% | low rate of cell division | increased the percentage of cells incorporating BrDU | stalled RNA synthesis | 11.7 µM | not only fully processed p24 CA, but also p25 CA-SP1 protein | medium cytotoxicity | 36.4 µM | – | – |
| C=C(C)[C@@H]1CC[C@]2(C(=O)N3CCN(CCNC(=O)OC(C)(C)C)CC3)CC[C@]3(C)[C@H](CC[C@@H]4[C@@]5(C)CC[C@H](OC(C)=O)C(C)(C)[C@@H]5CC[C@]43C)[C@@H]12 [Compound 12, (3β)-28-(4-{2-[(Tert-butoxycarbonyl)amino]ethyl}piperazine-1-yl)-28-oxolup-20(29)-ene-3-yl acetate] | 9.62 µM | > 50 µM | > 50 µM | > 50 µM | > 50 µM | > 50 µM | > 50 µM | > 50 µM | > 50 µM | > 50 µM | about 50% | low rate of cell division | increased the percentage of cells incorporating BrDU | – | 31.9 µM | Only completely processed p24 CA | inactive | > 40 µM | – | – |
| C=C(C)[C@@H]1CC[C@]2(C(=O)NCCCNC3=C4C=CC=[N+]4[B-](F)(F)n4cccc43)CC[C@]3(C)[C@H](CC[C@@H]4[C@@]5(C)CC[C@H](O)C(C)(C)[C@@H]5CC[C@]43C)[C@@H]12 [Compound 4, (3β)-N-[N’-(4,4-Difluoro-4-bora-3a,4a-diaza-s-indacene-8-yl)-3-aminopropyl]-3-hydroxylup-20(29)-ene-28-amide] | 23.7 µM | > 50 µM | > 50 µM | > 50 µM | > 50 µM | > 50 µM | > 50 µM | > 50 µM | > 50 µM | > 50 µM | – | – | – | – | 44.1 µM | Only completely processed p24 CA | inactive | > 40 µM | detected in living cells | almost perfectly label mitochondria and endoplasmic reticulum |
| C=C(C)[C@@H]1CC[C@]2(C(=O)NCCCN)CC[C@]3(C)[C@H](CC[C@@H]4[C@@]5(C)CC[C@H](OC(=O)CCNC6=C7C=CC=[N+]7[B-](F)(F)n7cccc76)C(C)(C)[C@@H]5CC[C@]43C)[C@@H]12 [Compound 6, (3β)-N-(3-Aminopropyl)-3-[N´-(4,4-difluoro-4-bora-3a,4a-diaza-s-indacene-8-yl)-β-alanyl]-oxy-lup-20(29)-ene-28-amide] | 1.55 µM | 11.5 µM | 5.25 µM | 31.8 µM | 6.65 µM | 3.85 µM | 3.39 µM | 5 µM | 8.07 µM | 8.37 µM | – | low rate of cell division | reduced the fraction of proliferating BrDU positive CCRF-CEM cells | – | – | – | high cytotoxicity | 12 µM | detected in living cells | almost perfectly label mitochondria and endoplasmic reticulum |
| CSC1=C2C=CC=[N+]2[B-](F)(F)n2cccc21 [BODIPY-SMe, 8-thiomethyl BODIPY, reference compound] | – | – | – | – | – | – | – | – | – | – | – | – | – | – | – | – | – | – | penetrate cell compartments | perfect colocalization in all studied cell lines |
